Assay results published in PubChem BioAssay (NCI).
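Grown in 96-well plates, cells were treated for 48 hours with each compound at five concentrations. Insufficient inhibition: endpoint recorded as highest concentration tested. GI50 = concentration required for 50% inhibition of growth. The concentration for full growth arrest is given as TGI.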

Legend:
Assay in all cases: NCI tumour cell line growth inhibition, 48 h
786-0 renal = system: 786-0 renal
A498 renal = system: A498 renal
A549 NSCLC = system: A549 NSCLC
ACHN renal = system: ACHN renal
BT-549 breast = system: BT-549 breast
CAKI-1 renal = system: CAKI-1 renal
CCRF-CEM leukemia = system: CCRF-CEM leukemia
COLO 205 colon = system: COLO 205 colon
DLD-1 colon = system: DLD-1 colon
DMS 114 small cell lung = system: DMS 114 small cell lung
DMS 273 small cell lung = system: DMS 273 small cell lung
DU-145 prostate = system: DU-145 prostate
EKVX NSCLC = system: EKVX NSCLC
HCC-2998 colon = system: HCC-2998 colon
HCT-116 colon = system: HCT-116 colon
HCT-15 colon = system: HCT-15 colon
HL-60(TB) leukemia = system: HL-60(TB) leukemia
HOP-18 NSCLC = system: HOP-18 NSCLC
HOP-62 NSCLC = system: HOP-62 NSCLC
HOP-92 NSCLC = system: HOP-92 NSCLC
HS 578T breast = system: HS 578T breast
HT29 colon = system: HT29 colon
IGROV1 ovarian = system: IGROV1 ovarian
K-562 leukemia = system: K-562 leukemia
KM12 colon = system: KM12 colon
KM20L2 colon = system: KM20L2 colon
LOX IMVI melanoma = system: LOX IMVI melanoma
M14 melanoma = system: M14 melanoma
M19-MEL melanoma = system: M19-MEL melanoma
MALME-3M melanoma = system: MALME-3M melanoma
MCF7 breast = system: MCF7 breast
MDA-MB-231 breast = system: MDA-MB-231 breast
MDA-MB-435 = system: MDA-MB-435
MDA-N = system: MDA-N
MOLT-4 leukemia = system: MOLT-4 leukemia
NCI-H226 lung = system: NCI-H226 lung
NCI-H23 lung = system: NCI-H23 lung
NCI-H460 lung = system: NCI-H460 lung
NCI-H522 lung = system: NCI-H522 lung
NCI/ADR-RES ovarian = system: NCI/ADR-RES ovarian
OVCAR-3 ovarian = system: OVCAR-3 ovarian
OVCAR-4 ovarian = system: OVCAR-4 ovarian
OVCAR-5 ovarian = system: OVCAR-5 ovarian
OVCAR-8 ovarian = system: OVCAR-8 ovarian
P388 leukemia = system: P388 leukemia
P388/ADR leukemia = system: P388/ADR leukemia
PC-3 prostate = system: PC-3 prostate
RPMI-8226 leukemia = system: RPMI-8226 leukemia
RXF 393 renal = system: RXF 393 renal
SF-268 CNS = system: SF-268 CNS
SF-295 CNS = system: SF-295 CNS
SF-539 CNS = system: SF-539 CNS
SK-MEL-2 melanoma = system: SK-MEL-2 melanoma
SK-MEL-28 melanoma = system: SK-MEL-28 melanoma
SK-MEL-5 melanoma = system: SK-MEL-5 melanoma
SK-OV-3 ovarian = system: SK-OV-3 ovarian
SN12C renal = system: SN12C renal
SN12K1 renal = system: SN12K1 renal
SNB-19 CNS = system: SNB-19 CNS
SNB-75 CNS = system: SNB-75 CNS
SNB-78 CNS = system: SNB-78 CNS
SR leukemia = system: SR leukemia
SW-620 colon = system: SW-620 colon
T-47D breast = system: T-47D breast
TK-10 renal = system: TK-10 renal
U251 CNS = system: U251 CNS
UACC-257 melanoma = system: UACC-257 melanoma
UACC-62 melanoma = system: UACC-62 melanoma
UO-31 renal = system: UO-31 renal
XF 498 CNS = system: XF 498 CNS

C[C@@H](CN1CC(=O)NC(=O)C1)N1CC(=O)NC(=O)C1
TGI (786-0 renal): 1120 µM
TGI (A498 renal): 698 µM
TGI (A549 NSCLC): 692 µM
TGI (ACHN renal): 753 µM
TGI (BT-549 breast): 783 µM
GI50 (CAKI-1 renal): 80.7 µM
TGI (CAKI-1 renal): 772 µM
TGI (CCRF-CEM leukemia): 1840 µM
TGI (COLO 205 colon): 296 µM
TGI (DLD-1 colon): 1090 µM
TGI (DMS 114 small cell lung): 441 µM
TGI (DMS 273 small cell lung): 626 µM
TGI (DU-145 prostate): 1430 µM
TGI (EKVX NSCLC): 546 µM
TGI (HCC-2998 colon): 1540 µM
TGI (HCT-116 colon): 750 µM
TGI (HCT-15 colon): 823 µM
TGI (HL-60(TB) leukemia): 1300 µM
TGI (HOP-18 NSCLC): 1180 µM
TGI (HOP-62 NSCLC): 328 µM
TGI (HOP-92 NSCLC): 908 µM
TGI (HS 578T breast): 1810 µM
TGI (HT29 colon): 950 µM
TGI (IGROV1 ovarian): 1440 µM
TGI (K-562 leukemia): 2500 µM
TGI (KM12 colon): 2170 µM
TGI (KM20L2 colon): 1290 µM
TGI (LOX IMVI melanoma): 729 µM
TGI (M14 melanoma): 1160 µM
TGI (M19-MEL melanoma): 998 µM
TGI (MALME-3M melanoma): 1100 µM
TGI (MCF7 breast): 498 µM
TGI (MDA-MB-231 breast): 679 µM
TGI (MDA-MB-435): 1470 µM
TGI (MDA-N): 680 µM
TGI (MOLT-4 leukemia): 821 µM
GI50 (NCI-H226 lung): 90.7 µM
TGI (NCI-H226 lung): 485 µM
TGI (NCI-H23 lung): 791 µM
TGI (NCI-H460 lung): 553 µM
TGI (NCI-H522 lung): 518 µM
TGI (NCI/ADR-RES ovarian): 987 µM
TGI (OVCAR-3 ovarian): 767 µM
TGI (OVCAR-4 ovarian): 1110 µM
TGI (OVCAR-5 ovarian): 1190 µM
TGI (OVCAR-8 ovarian): 747 µM
TGI (P388 leukemia): 2500 µM
TGI (P388/ADR leukemia): 2180 µM
TGI (PC-3 prostate): 1450 µM
TGI (RPMI-8226 leukemia): 2300 µM
TGI (RXF 393 renal): 1140 µM
TGI (SF-268 CNS): 1160 µM
TGI (SF-295 CNS): 779 µM
TGI (SF-539 CNS): 1060 µM
TGI (SK-MEL-2 melanoma): 754 µM
TGI (SK-MEL-28 melanoma): 1750 µM
TGI (SK-MEL-5 melanoma): 543 µM
TGI (SK-OV-3 ovarian): 1870 µM
TGI (SN12C renal): 906 µM
TGI (SN12K1 renal): 541 µM
TGI (SNB-19 CNS): 1370 µM
TGI (SNB-75 CNS): 929 µM
TGI (SNB-78 CNS): 1480 µM
TGI (SR leukemia): 1470 µM
TGI (SW-620 colon): 1030 µM
TGI (T-47D breast): 1020 µM
TGI (TK-10 renal): 1110 µM
TGI (U251 CNS): 839 µM
TGI (UACC-257 melanoma): 2390 µM
TGI (UACC-62 melanoma): 570 µM
TGI (UO-31 renal): 1060 µM
TGI (XF 498 CNS): 201 µM
